Reference: patent publication US10800790B2, “Sesquiterpenoid STAT3 inhibitors” (University of Hawaii, priority 2013, dated 2020)
Entries after “also recorded” stand apart in the source; their conditions may differ. Where two headings read alike, the source gives them in different places. Each block holds one molecule with its values, some of them ahead of it.

Tests used:
[1] = system: intracellular glutathione; details: literature reports, cited from earlier work
[2] = system: STAT3 tyrosine phosphorylation; details: Butturini et al. 2011; cited from earlier work
[3] = system: MDA-MB-231 breast cancer cells; assay: CyQuant cell viability/proliferation assay, MDA-MB-231; format: cell-based, human; parameters: key to Activity against 231: +, active; −, no activity; +/−, poorly active
Protocol: (§1) The cell viability assay was performed as previously reported (Zhang X, et al. (2010)). Briefly, a 10 millimolar concentration stock solution in dimethylsulfoxide (DMSO) of the tested molecule was first prepared. Next, the stock solution was diluted down to various working solutions in water. Thus, a formulation of the tested compound in a DMSO/water mixture was used to test for cell viability. (A novel small-molecule disrupts STAT3 SH2 domainphosphotyrosine interactions and STAT3-dependent tumor processes, Biochem Pharmacol 79:1398-1409; Zhao W, Jaganathan S, & Turkson J (2010), A cell-permeable STAT3 SH2 domain mimetic inhibits STAT3 activation and induces antitumor cell effects in vitro. J Biol Chem. 285:35855-35865). Cells (U251MG, MDA-MB-231 or NIH3T3) were obtained from ATCC (Manassas, Va.) and were cultured in 96-well plates at 2,000 cells per well for 24 h and were treated with compounds (5 micromolar concentration) for 72 h. Cell viabilty was determined using CyQuant assay, according to the manufacturer's (Invitrogen, CA, USA) instructions. Relative viability of the treated cells was normalized to the DMSO-treated control cells.

[4] = system: pY705STAT3 in U251MG or MDA-MB-231 cells; assay: Immunoblotting of pY705STAT3 in treated tumor cells; details: 5 micromolar, U251MG or MDA-MB-231; for Effect on pY705STAT3 / STAT3 activity (immunoblot), in words: 0-24 h, Table 1/FIG. 2 numbering
Protocol: Positions of STATs:DNA complexes or proteins in gel are labeled; control lanes (0) represent nuclear extracts or whole-cell lysates prepared from 0.05% DMSO-treated cells. Data are representative of at least three to four independent determinations.
Lysates of equal total protein prepared in the lysis buffer (50 mM Hepes, pH 7.5, 150 mM NaCl, 2 mM EDTA, 1% Triton X-100, 0.1% SDS), were subjected to IP or Western blotting analysis. Antibodies against STAT3, pY705STAT3, Src, pY416Src, Erk1/2, and pT202/Y204Erk1/2 and GAPDH (Cell Signaling Technology, Danvers, Mass.), and anti-β-actin, and HSP105 (Santa Cruz Biotechnology, Dallas, Tex.) are from the designated sources.
Whole-cell lysates were prepared in boiling SDS sample loading buffer to extract total proteins, as reported previously. […] Nitrocellulose membranes were probed with primary antibodies, and the detection of horseradish peroxidase-conjugated secondary antibodies by enhanced chemiluminescence (Amersham) was performed. Antibodies used were monoclonal anti-pYSTAT3 and anti-STAT3 antibodies (Cell Signaling Technology, Danvers, Mass.).

[5] = system: U251MG glioblastoma cells; assay: CyQuant cell viability/proliferation assay, U251MG; format: cell-based, human; parameters: key to Activity against U251: +, active; −, no activity; +/−, poorly active; details: for Cell-type selectivity of growth inhibition, in words: U251MG versus other cells incl. NIH3T3; for Activity against U251: Table 1 grade, Table 1/FIG. 2 compound numbering; for Activity against the cell lines, in words: tested at 5 micromolar
Protocol: as §1

[6] = system: normal NIH3T3 mouse fibroblasts; assay: CyQuant cell viability/proliferation assay, NIH3T3; format: cell-based; parameters: key to Activity against 3T3: +, active; −, no activity; +/−, poorly active
Protocol: as §1

[7] = system: GSH levels in U251 MG cells; assay: Glutathione (GSH) levels in U251 MG cells
Protocol: Reduced glutathione (GSH) and oxidized glutathione disulfide (GSSG) levels were assayed using a commercially available kit (Cayman Chemical, Ann Arbor, Mich.) and following the manufacturer's instructions.

[8] = biological target: T1, STAT3 (NIH3T3/v-Src nuclear extracts) (Mus musculus, UniProt P42227); assay: In vitro STAT3 DNA-binding activity/EMSA, nuclear extracts incubated with compound; format: biochemical; details: 5 micromolar, 30 min at room temperature
T1 construct: nuclear extracts prepared from v-Src-transformed mouse fibroblasts (NIH3T3/v-Src) containing active STAT3; endogenous in cells; host or cells: NIH3T3/v-Src mouse fibroblasts (nuclear extract)
T1 sequence (P42227 whole entry): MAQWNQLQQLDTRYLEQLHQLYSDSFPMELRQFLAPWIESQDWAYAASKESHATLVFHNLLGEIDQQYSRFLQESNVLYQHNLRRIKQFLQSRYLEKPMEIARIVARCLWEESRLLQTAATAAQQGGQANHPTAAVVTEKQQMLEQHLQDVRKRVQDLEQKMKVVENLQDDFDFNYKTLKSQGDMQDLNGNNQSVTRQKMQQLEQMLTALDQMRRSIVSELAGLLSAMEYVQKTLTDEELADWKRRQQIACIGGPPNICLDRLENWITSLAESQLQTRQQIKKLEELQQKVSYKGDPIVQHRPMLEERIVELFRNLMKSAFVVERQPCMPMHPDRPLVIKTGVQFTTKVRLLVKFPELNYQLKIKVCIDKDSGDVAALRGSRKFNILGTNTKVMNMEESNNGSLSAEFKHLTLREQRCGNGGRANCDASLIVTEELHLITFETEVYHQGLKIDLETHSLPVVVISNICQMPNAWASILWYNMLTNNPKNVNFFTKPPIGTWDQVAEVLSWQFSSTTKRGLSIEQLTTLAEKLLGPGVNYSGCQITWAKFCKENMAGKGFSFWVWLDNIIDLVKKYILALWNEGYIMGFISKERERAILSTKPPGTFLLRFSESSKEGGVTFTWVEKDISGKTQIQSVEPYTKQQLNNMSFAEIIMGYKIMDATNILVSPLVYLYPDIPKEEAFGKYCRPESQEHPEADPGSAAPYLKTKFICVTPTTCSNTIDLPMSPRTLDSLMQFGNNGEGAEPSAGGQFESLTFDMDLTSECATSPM
Protocol: To further determine the effects of the bioactive agents on STAT3 activity, nuclear extracts prepared from v-Src-transformed mouse fibroblasts (NIH3T3/v-Src) containing active STAT3 were directly incubated with 5 micromolar compounds for 30 min at room temperature prior to performing STAT3 DNA-binding activity in vitro with EMSA analysis. […] These studies indicate that agents directly interact with STAT3 and disrupt STAT3:STAT3 dimers, thereby inhibiting its DNA-binding activity.
Data are representative of 2-3 independent determinations.
Nuclear extract preparations and DNA-binding/electrophoretic mobility shift assay (EMSA) were carried out as previously described (Xu, supra). Nuclear extract preparations and DNA-binding activity/electrophoretic mobility shift assay (EMSA) were carried out as previously described. U251 MG and MDA-MB-231 cells culture were pretreated with different concentrations of the compounds for the indicated period and then harvested for nuclear extract preparation and DNA-binding assay with EMSA analysis. The ^32P-labeled oligonucleotide probe used was hSIE (high-affinity sis-inducible element) from the c-fos gene, m67 variant (5′-[…]-3′) that binds STAT3. Except where indicated, nuclear extracts were pre-incubated with compound for 30 min at room temperature prior to incubation with the radiolabeled probe for 30 min at 30° C. before subjecting to EMSA analysis. Where appropriate, bands corresponding to DNA-binding activities were scanned and quantified for each concentration of compound using ImageJ and plotted as percent of control (vehicle) against concentration of compound, from which the IC50 values were derived.

[9] = biological target: Stat3 (Homo sapiens, UniProt P40763); assay: Activity against Stat3 (Table 1 grade); format: biochemical; parameters: key: +, active; −, no activity; +/−, poorly active; details: Table 1/FIG. 2 compound numbering
Stat3, sequence (P40763 whole entry, species assumed): as the sequence (P42227 whole entry) above, with D760E counted along it

[10] = system: STAT3 DNA-binding activity; assay: STAT3 DNA-binding activity (EMSA) of nuclear extracts from treated tumor cells; details: 5 micromolar, time course
Protocol: Positions of STATs:DNA complexes or proteins in gel are labeled; control lanes (0) represent nuclear extracts or whole-cell lysates prepared from 0.05% DMSO-treated cells.
Nuclear extract preparations and DNA-binding/electrophoretic mobility shift assay (EMSA) were carried out as previously described (Xu, supra). Nuclear extract preparations and DNA-binding activity/electrophoretic mobility shift assay (EMSA) were carried out as previously described. U251 MG and MDA-MB-231 cells culture were pretreated with different concentrations of the compounds for the indicated period and then harvested for nuclear extract preparation and DNA-binding assay with EMSA analysis. […] Except where indicated, nuclear extracts were pre-incubated with compound for 30 min at room temperature prior to incubation with the radiolabeled probe for 30 min at 30° C. before subjecting to EMSA analysis.

[11] = Table 1 grade, Table 1/FIG. 2 compound numbering

Structure (SMILES): C=C1CC[C@H]2C(=C)CC[C@H]3C(=C)C(=O)O[C@@H]3[C@@H]12 [dehydrocostuslactone]
Intracellular glutathione content [1]: rapid drop in intracellular glutathione content | Tyrosine-phosphorylation of STAT3 in cells treated with IL-6 [2]: inhibited the tyrosine-phosphorylation of STAT3

Structure (SMILES): C=C1C(=O)O[C@@H]2/C=C(\C)CC/C=C(\C)CC[C@@H]12 [costunolide, reference compound]
Intracellular glutathione content [1]: rapid drop in intracellular glutathione content | Intracellular glutathione content ([1]; listed as costinulide): suppress the intracellular glutathione (GSH) pool | inhibition at 5 µM ([3]; Homo sapiens, MDA-MB-231, at 5 μM, 72 h, Table 3 numbering (isolates 1-16)): 10.5% | Effect on pY705STAT3 / STAT3 activity (immunoblot), in words ([4]; listed as costinulide): little effect on STAT3 activity; also recorded: minimal effects on pY705STAT3 | Inhibition of pY705STAT3 (immunoblot), in words ([4]; Table 3 numbering (isolates 1-16)): negligible or weak | inhibition at 5 µM ([5]; Homo sapiens, U-251, at 5 μM, 72 h, Table 3 numbering (isolates 1-16)): 17.5% | Cell-type selectivity of growth inhibition, in words ([5]; Table 1/FIG. 2 numbering): generally toxic to U251MG and normal NIH3T3 | Cell-type selectivity of growth inhibition, in words ([5]; Table 1/FIG. 2 numbering, listed as costinulide): non-specfically active against glioma U251MG and normal NIH3T3 mouse fibroblasts | inhibition at 5 µM ([6]; Mus musculus, NIH3T3, at 5 μM, 72 h, Table 3 numbering (isolates 1-16), read-out: NIH-3T3 % inhibition): 41.6% | Effect on GSH levels [7]: suppressed GSH levels | Tyrosine-phosphorylation of STAT3 in cells treated with IL-6 [2]: inhibited the tyrosine-phosphorylation of STAT3

Structure (SMILES): CC=C(C)C(=O)OC1CC(C)C2(O)CCC(C)(C=C3OC(=O)C(COC(C)=O)=C31)O2 (stereo not shown) [Compound 20]
Activity against 231 [3, 11]: + | Inhibition of STAT3 DNA-binding activity in vitro (EMSA) [8]: strong inhibition | Activity against Stat3 [9]: + | Effect on pY705STAT3 / STAT3 activity (immunoblot), in words [4]: early inhibition at 15-30 min | IC50 ([5]; 72-h treatment, Table 1/FIG. 2 numbering, read-out: IC50 for the inhibition of U251MG cell viability): 4.3 µM | Cell-type selectivity of growth inhibition, in words ([5]; Table 1/FIG. 2 numbering): selective against the growth of human glioma U251MG cells | Activity against 3T3 [6, 11]: +/− | Inhibition of STAT3 DNA-binding activity in treated cells (EMSA) [10]: early inhibition at 15-30 min

Structure (SMILES): C/C1=C\[C@H]2OC(=O)[C@@H](C)[C@@H]2CC/C(C)=C/CC1 [dihydrocostunolide]
Tyrosine-phosphorylation of STAT3 in cells treated with IL-6 [2]: failed to exert inhibitory action toward STAT3 tyrosine phosphorylation

Structure (SMILES): C=C(C)C(=O)OC1CC(C)C2(OC)CCC(C)(C=C3OC(=O)C(CO)=C31)O2 (stereo not shown) [Compound 28]
Inhibition of STAT3 DNA-binding activity in vitro (EMSA) [8]: moderate to no effect | Activity against Stat3 [9]: − | Effect on pY705STAT3 / STAT3 activity (immunoblot), in words [4]: little effects on pY705STAT3 | Activity against U251 [5]: − | Activity against the cell lines, in words ([5]; Table 1/FIG. 2 numbering): moderate to weak activity

Inhibition of STAT3 DNA-binding activity in vitro (EMSA) [8]: moderate to no effect | Activity against Stat3 [9]: −
Structure (SMILES): CC=C(C)C(=O)OC1CC(C)C2(O)CCC(C)(C=C3OC(=O)C(CO)=C31)O2 (stereo not shown) [Compound 19]
Effect on pY705STAT3 / STAT3 activity (immunoblot), in words [4]: little effects on pY705STAT3 | Activity against U251 [5]: − | Activity against the cell lines, in words ([5]; Table 1/FIG. 2 numbering): moderate to weak activity

Structure (SMILES): C=C(C)C(=O)OC1CC(C)C2(O)CCC(C)(C=C3OC(=O)C(CO)=C31)O2 (stereo not shown) [Compound 18]
Inhibition of STAT3 DNA-binding activity in vitro (EMSA) [8]: moderate to no effect | Activity against Stat3 [9]: − | Effect on pY705STAT3 / STAT3 activity (immunoblot), in words [4]: little effects on pY705STAT3 | Activity against U251 [5]: +/− | Activity against the cell lines, in words ([5]; Table 1/FIG. 2 numbering): moderate to weak activity
